Columns and labels:
[1] = tested on: VK9, a mouse IgG anti-Globo H monoclonal antibody; experiment: ELISA of biotinylated glycans captured on streptavidin against VK9; format: binding; details: biotinylated sugars captured on streptavidin; OD450
Source text: (§1) Initially we validated the selected system with the conventional ELISA to confirm the antibody binding capacity and specificity of the glycans. Since sugars have low binding affinity for unmodified plastic surfaces, the binding protein, streptavidin, was used to capture biotinylated sugars. In another experiment we also tested DEGL using ELISA to see the effect of different presentation of glycans. For this assay, we coated the DEGL onto plastic surfaces directly. Both naked glycan and DEGL was tested against VK9, a mouse IgG anti-Globo H monoclonal antibody. […] We rationalize this difference in pattern to the different presentation of glycan epitope, all of the four glycans have the same terminal epitope of Fuc a1-2 Gal(b1-3 GalNAc), which is recognized by VK9 antibodies,[38] but a long DNA tag on the DEGL will give more space to the glycan antigens binding with the antibody, while normal ELISA would block the binding of the short glycans of Bb3 and Bb2. […]
(§2) A 96-well plate (Costar® Polystyrene High Binding Plate 3590) was coated with […] of 10 ug/ml Streptavidin (Sigma) in 0.01 M PBS (pH 7.4) at 4° C. overnight. […] The plate was then read at OD450 with a plate reader (PerkinElmer®, 2030 Multilabel Reader Victor®). The result was calculated by minus OD450 value of control (no antibody).

[2] = tested on: VK9, a mouse IgG anti-Globo H monoclonal antibody; experiment: ELISA of DEGL (glycan-DNA codes coated with Pierce DNA coating solution) against VK9; format: binding; details: glycan-DNA conjugates coated directly onto plastic; OD450
Source text: as §1, §2

VK9 antibody = experiment: Multiplex detection of DEGL against VK9 antibody by NGS; format: binding, mouse
Experimental: Next, we wanted to translate the results to more promising NGS based parallel screening. Initially we tested the different concentrations of DEGL with different concentrations of VK9 antibody using the PCR and qPCR assays. We incubated 1 uM, 500 nM, 100 nM and 10 nM samples with 0.5 μL, 1 μL, and 2 μL of the VK9 antibody (0.5 μg/μL), and unbound glycans were washed out after precipitating the bound glycan-VK9 complex on protein A/G beads. Each assay was compared to the same amount of DEGL with no VK9 negative control. Then, washed beads were used as the template for the NGS analysis. Briefly, beads were diluted to 20 μL, and from this, 2 μL was used for the initial PCR amplification (18 cycles). PCR products were then purified using AMpure beads (Beckman Coulter) according to the manufacturer's protocol and used for the NGS fusion PCR to incorporate the index codes and ion-torrent NGS adapters. Now about 150 bp DNA codes, it was again purified using AMpure beads, and all barcoded samples were run through an Agilent Bioanalyzer for quality control. Samples were then pooled in equimolar concentration and adjusted to the desired 26 pM for the NGS, analyzed using ion-PGM semiconductor sequencer. Data were analyzed using ‘FASTAPTAMER’ software,[39] and an in house developed program. […]

In the case of Globo-H [GbH], the “ELISA binding intensity of VK9” value [1] is reported as “very high binding intensities”, the “ELISA binding of VK9” value [2] is reported as “strong binding” and the “relative enrichment in comparison with the no VK9 negative control” value (VK9 antibody; biotin tagged secondary antibody, magnetic streptavidin beads, NGS) is reported as “enriched”. The “enrichment (NGS)” value (VK9 antibody; modified method with control sequence added after selection, Globo-H series+A and B glycan DEGL) was “selective enrichment”.

Source: patent US11884961B2, “DNA-glycan conjugates and methods of use” (GEORGIA STATE UNIVERSITY RESEARCH FOUNDATION, INC., priority 2017, dated 2024)
